From the supplement of paper PMC13380429

Legend:
Conditions in all cases: 72 h
[1] = tested on: Caco-2; assay: cell viability relative to DMSO; higher = less toxic
[2] = tested on: U2OS; assay: as above
[3] = tested on: Vero E6; assay: as above
[4] = tested on: Calu-3; assay: as above
[5] = tested on: HepG2; assay: as above
[6] = tested on: Caco-2; assay: drug sensitivity score (DSS) for viability; higher = more toxic; extreme values may be limits of the assay
[7] = tested on: U2OS; assay: as above
[8] = tested on: Vero E6; assay: as above
[9] = tested on: Calu-3; assay: as above
[10] = tested on: HepG2; assay: as above
[11] = tested on: Caco-2; assay: relative viability EC50 (midpoint between 100% and the lowest measured viability); higher = less toxic
[12] = tested on: U2OS; assay: as above
[13] = tested on: Vero E6; assay: as above
[14] = tested on: Calu-3; assay: as above
[15] = tested on: HepG2; assay: as above

SMILES | cell viability ([1]; 1 nM) [%] | cell viability ([1]; 10 nM) [%] | cell viability ([1]; 100 nM) [%] | cell viability ([1]; 1000 nM) [%] | cell viability ([1]; 10000 nM) [%] | cell viability ([2]; 1 nM) [%] | cell viability ([2]; 10 nM) [%] | cell viability ([2]; 100 nM) [%] | cell viability ([2]; 1000 nM) [%] | cell viability ([2]; 10000 nM) [%] | cell viability ([3]; 1 nM) [%] | cell viability ([3]; 10 nM) [%] | cell viability ([3]; 100 nM) [%] | cell viability ([3]; 1000 nM) [%] | cell viability ([3]; 10000 nM) [%] | cell viability ([4]; 1 nM) [%] | cell viability ([4]; 10 nM) [%] | cell viability ([4]; 100 nM) [%] | cell viability ([4]; 1000 nM) [%] | cell viability ([4]; 10000 nM) [%] | cell viability ([5]; 1 nM) [%] | cell viability ([5]; 10 nM) [%] | cell viability ([5]; 100 nM) [%] | cell viability ([5]; 1000 nM) [%] | cell viability ([5]; 10000 nM) [%] | drug sensitivity score [6] | drug sensitivity score [7] | drug sensitivity score [8] | drug sensitivity score [9] | drug sensitivity score [10] | relative viability EC50 [11] [µM] | relative viability EC50 [12] [µM] | relative viability EC50 [13] [µM] | relative viability EC50 [14] [µM] | relative viability EC50 [15] [µM]
Nc1nccs1 [aminothiazole] | 102 | 94.8 | 97.8 | 98.9 | 100 | 102 | 98.6 | 94.2 | 99.8 | 97.1 | 105 | 106 | 98.2 | 93.4 | 95.4 | 102 | 105 | 100 | 109 | 91.3 | 104 | 100 | 94.7 | 97.2 | 97.4 | 0 | 0 | 0 | 0 | 0 | > 10 | > 10 | > 10 | > 10 | > 10
C[n+]1cc2c3c(ccc2c2ccc4cc5c(cc4c21)OCO5)OCO3 [sanguinarium-chloride] | 85.8 | 103 | 73.1 | 82.4 | 2.2 | 96.6 | 98.5 | 97 | 92.1 | 0.2 | 109 | 99.8 | 105 | 75.9 | 0.1 | 101 | 96.4 | 83.9 | 91.1 | 0.9 | 93 | 103 | 96.7 | 64.3 | 0 | 8.3 | 6.8 | 9.2 | 6.9 | 10.3 | 1.82 | 2.52 | 1.58 | 2.42 | 1.29
O=C1NCCNC1c1cccs1 (stereo not given) [tenilsetam] | 105 | 95.1 | 103 | 97.5 | 97.4 | 103 | 96.3 | 104 | 96.2 | 102 | 97.2 | 103 | 90.1 | 97.7 | 101 | 92.3 | 98.2 | 100 | 97.1 | 99.1 | 106 | 106 | 96.4 | 97.2 | 92.3 | 0 | 0 | 0 | 0 | 0 | > 10 | > 10 | > 10 | > 10 | > 10
O=c1cccc2n1C[C@@H]1CNC[C@H]2C1 [cytisine] | 93.3 | 92.2 | 92.4 | 91.3 | 96.5 | 102 | 96.2 | 101 | 100 | 102 | 88.2 | 98.6 | 92.5 | 97.3 | 108 | 101 | 95.6 | 99 | 95.4 | 104 | 102 | 101 | 96.4 | 97 | 114 | 0 | 0 | 0 | 0 | 0 | > 10 | > 10 | > 10 | > 10 | > 10
Cn1cc(C(=O)c2cccc3ccccc23)cc1C(=O)O [napirimus] | 99.3 | 92 | 95.4 | 96.5 | 85.6 | 104 | 100 | 101 | 98.3 | 98.4 | 92.9 | 99.7 | 95.2 | 105 | 99 | 98.7 | 104 | 100 | 101 | 104 | 101 | 97.9 | 103 | 99.8 | 94.8 | 0 | 0 | 0 | 0 | 0 | > 10 | > 10 | > 10 | > 10 | > 10
CN1C(CCl)Nc2cc(Cl)c(S(N)(=O)=O)cc2S1(=O)=O (stereo not given) [methyclothiazide] | 101 | 103 | 104 | 103 | 94.9 | 104 | 96.9 | 101 | 98.4 | 102 | 94.3 | 96.6 | 94.8 | 99.4 | 99.7 | 103 | 91.8 | 97.9 | 105 | 108 | 96.3 | 96.1 | 106 | 104 | 105 | 0 | 0 | 0 | 0 | 0 | > 10 | > 10 | > 10 | > 10 | > 10
O=C1c2c(O)cc(O)cc2O[C@H](c2cc(O)c(O)c(O)c2)[C@H]1O [dihydromyricetin] | 102 | 92.3 | 95.6 | 100 | 97.4 | 102 | 95.8 | 103 | 106 | 104 | 96.1 | 96 | 96.4 | 98.4 | 103 | 105 | 98.2 | 93.7 | 111 | 90.3 | 95.8 | 94.5 | 98.5 | 94.7 | 103 | 0 | 0 | 0 | 0 | 0 | > 10 | > 10 | > 10 | > 10 | > 10
